Data: patent US20250326753A1, “DUAL CXCR4-BTK INHIBITORS” (X4 Pharmaceuticals, Inc., priority 2022, published 2025)
Read-outs that look alike come from different tables or passages of the source.

Experiments:
[1] = tested on: T98G; assay: Glioblastoma multiforme cell proliferation assay (CellTiter Glo), T98G; type: cell-based; details: Homo sapiens; for Emax: read-out: GBM-T-98G Cell Proliferation Emax %
Protocol: (§1) Inhibition of glioblastoma multiforme cell proliferation by compounds of the present invention was evaluated in U-87 MG (ATCC; Cat. No. HTB-14; Lot. No. 5018014) and T98G (ATCC; Cat. No. CRL-1690; Lot. No. 58267513) cell lines. These are adherent cell lines isolated from glioblastoma multiforme/malignant glioma, which express both CXCR4 and BTK (see Zhou et al. 2002 and Yue et al. 2017).
(§2) Cell viability was analyzed with the CellTiter Glo Cell assay kit ([…], Cat. No. G7573, Lot. No. 0000474103), according to the manufacturer's instruction.
(§3) U-87 MG and T98G cells were seeded onto 384-well opaque-walled clear bottom plates (Corning, Cat. No. 3765, Lot. No. 34319047) in EMEM (Invitrogen, Cat. No. 11095-080; Lot. No. 2276656) supplemented with 10% FBS (Invitrogen, Cat. No. 10099-141C, Lot. No. 2145169CP), at a seeding density of 1000 or 1200 cells per well, respectively, and then incubated in 5% CO2 at 37° C. overnight.
(§4) Compounds were prepared as stock solutions of 30 mM in DMSO (Sigma, Cat. No. 276855-1L. Lot. No. SHBL5610). Compounds were added to the cells, with 10 dose points in duplicates, in 3-fold dilution from a top concentration of 30 μM (final DMSO concentration […]), and incubated in 5% CO2 at 37° C. for 96 hr.
(§5) The 384-well plates were equilibrated at room temperature for approximately 30 min. 25 μl of CellTiter-Glo® Reagent was added to each well and mixed for 10 min on an orbital shaker to induce cell lysis. The 384-well plates were incubated at room temperature for 10 min to stabilize luminescent signal. Luminescence was detected on a PerkinElmer EnVision Multimode Plate Reader (measurement time 0.1s) as relative luminescence units (RLU).

[2] = tested on: U-87 MG; assay: Glioblastoma multiforme cell proliferation assay (CellTiter Glo), U-87 MG; type: cell-based; details: Homo sapiens; for Emax: read-out: GBM-U87MG Cell Proliferation Emax %
Protocol: as §1, §2, §3, §4, §5

[3] = tested on: GBM-U251MG; assay: GBM cell proliferation, U251MG (cell-based cancer efficacy assays); details: Homo sapiens, U-251; Table 6B
[4] = biological target: T1, CDK13/CycK (Homo sapiens, UniProt Q14004); assay: PanQinase kinase panel: CDK13/CycK; type: biochemical; details: read-out: INHIBITORY EFFECT @ 1 uM: CDK13/CycK
T1 construct: purchased Reaction Biology Europe GmbH
T1 sequence (Q14004 whole entry): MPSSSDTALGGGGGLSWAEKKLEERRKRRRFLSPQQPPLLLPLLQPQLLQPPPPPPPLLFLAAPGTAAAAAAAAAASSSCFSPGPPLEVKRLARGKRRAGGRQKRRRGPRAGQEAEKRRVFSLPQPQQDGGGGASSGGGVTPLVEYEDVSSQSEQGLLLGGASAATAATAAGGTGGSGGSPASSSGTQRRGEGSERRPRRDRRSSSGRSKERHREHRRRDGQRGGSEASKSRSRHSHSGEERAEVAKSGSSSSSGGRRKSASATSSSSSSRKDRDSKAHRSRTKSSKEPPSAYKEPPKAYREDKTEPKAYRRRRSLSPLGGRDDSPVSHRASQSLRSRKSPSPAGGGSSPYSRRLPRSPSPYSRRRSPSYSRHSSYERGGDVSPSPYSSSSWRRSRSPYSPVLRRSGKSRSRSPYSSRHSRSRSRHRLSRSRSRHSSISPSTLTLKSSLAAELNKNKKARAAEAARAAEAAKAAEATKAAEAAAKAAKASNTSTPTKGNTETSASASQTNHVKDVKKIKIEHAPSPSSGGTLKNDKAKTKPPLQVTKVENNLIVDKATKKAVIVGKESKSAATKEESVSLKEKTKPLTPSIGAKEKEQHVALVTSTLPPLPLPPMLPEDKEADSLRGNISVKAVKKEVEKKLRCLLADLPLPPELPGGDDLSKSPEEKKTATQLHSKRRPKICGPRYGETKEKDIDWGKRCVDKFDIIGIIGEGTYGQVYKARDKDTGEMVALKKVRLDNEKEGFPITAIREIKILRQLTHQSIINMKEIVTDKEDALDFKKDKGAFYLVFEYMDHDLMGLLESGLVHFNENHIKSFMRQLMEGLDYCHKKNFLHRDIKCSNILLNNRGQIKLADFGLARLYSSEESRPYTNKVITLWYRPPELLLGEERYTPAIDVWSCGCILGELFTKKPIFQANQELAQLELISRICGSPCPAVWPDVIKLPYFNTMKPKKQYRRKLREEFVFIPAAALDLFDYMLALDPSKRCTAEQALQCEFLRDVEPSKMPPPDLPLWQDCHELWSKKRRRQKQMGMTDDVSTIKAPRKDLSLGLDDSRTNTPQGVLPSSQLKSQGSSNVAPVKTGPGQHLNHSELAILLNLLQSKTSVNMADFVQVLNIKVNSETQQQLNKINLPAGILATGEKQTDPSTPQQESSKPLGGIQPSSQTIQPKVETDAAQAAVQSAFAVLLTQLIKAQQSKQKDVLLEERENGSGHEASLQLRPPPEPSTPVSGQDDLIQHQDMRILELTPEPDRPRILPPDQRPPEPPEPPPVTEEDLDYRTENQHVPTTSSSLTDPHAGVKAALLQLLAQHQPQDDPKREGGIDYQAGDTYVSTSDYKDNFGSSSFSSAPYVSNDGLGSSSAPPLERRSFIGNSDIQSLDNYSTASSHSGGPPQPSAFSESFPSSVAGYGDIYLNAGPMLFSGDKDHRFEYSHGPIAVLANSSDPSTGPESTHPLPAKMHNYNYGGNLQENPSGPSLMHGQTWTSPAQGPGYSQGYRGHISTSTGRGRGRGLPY
T1 sequence (O75909 whole entry partner): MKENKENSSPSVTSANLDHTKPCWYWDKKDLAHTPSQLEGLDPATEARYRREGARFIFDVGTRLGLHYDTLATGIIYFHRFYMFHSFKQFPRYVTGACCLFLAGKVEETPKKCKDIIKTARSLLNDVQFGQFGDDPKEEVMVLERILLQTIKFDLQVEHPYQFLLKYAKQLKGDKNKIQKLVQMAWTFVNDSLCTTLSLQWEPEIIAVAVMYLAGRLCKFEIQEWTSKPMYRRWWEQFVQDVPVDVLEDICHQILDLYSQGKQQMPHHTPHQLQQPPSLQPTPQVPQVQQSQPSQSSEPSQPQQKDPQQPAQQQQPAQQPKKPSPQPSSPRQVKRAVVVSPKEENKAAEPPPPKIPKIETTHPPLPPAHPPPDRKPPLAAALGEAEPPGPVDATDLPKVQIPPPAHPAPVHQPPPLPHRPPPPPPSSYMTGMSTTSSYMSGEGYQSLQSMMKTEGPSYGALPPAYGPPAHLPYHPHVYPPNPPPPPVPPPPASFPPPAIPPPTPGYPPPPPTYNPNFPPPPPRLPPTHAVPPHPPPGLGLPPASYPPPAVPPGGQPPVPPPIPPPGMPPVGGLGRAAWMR
Protocol: Screening procedures were performed in accordance with the company's on-line protocol [accessed on-line Mar. 25, 2022 at reaction biology.com/assay-protocol-panqinase]. Inhibitory activity of 50% or greater at concentrations of 1 μM are highlighted for all five compounds tested.
For each kinase, the median value of the cpm of three wells was defined as “low control” (n=3). This value reflects unspecific binding of radioactivity to the plate in the absence of a protein kinase but in the presence of the substrate. Additionally, for each kinase the median value of the cpm of three other wells was taken as the “high control,” i.e. full activity in the absence of any inhibitor (n=3). The difference between high and low control of each enzyme was taken as 100% activity.
As part of the data evaluation the low control of each kinase was subtracted from the high control value as well as from their corresponding “compound values”. The residual activity (in %) for each compound well was calculated by using the following formula: Res. Activity (%)=100×[(signal of compound−low control)/(high control−low control)].

[5] = tested on: MWCL-1; assay: Apoptosis assay (annexin V flow cytometry) in Waldenstrom's Macroglobulinemia cells; type: cell-based, human; details: Homo sapiens; numeric; read-out: Apoptosis IC50 (μM) in single-mutant WM Cell Lines (MWCL-1)
Protocol: Waldenström's Macroglobulinemia cells (MWCL-1) and the bone marrow stromal cells (BMSCs; HS-27A) were used in this study. The MWCL-1 is a lymphoplasmacytic lymphoma established from the bone marrow aspirate of a patient diagnosed with Waldenström's Macroglobulinemia. It was provided by Dr Stephen M. Ansell (MAYO file number 2021-121; 200 First Street SW, Rochester, Minnesota). This cell line was cultured in RPMI-1640 (Fisher Scientific) containing 10% fetal bovine serum (FBS) (Sigma Aldrich, St Louis, MO), 100U/ml of Penicillin-Streptomycin (Gibco™, ThermoFisher Scientific). The HS-27A bone marrow stromal cells were obtained from ATCC. They were maintained in RPMI 1640 (Fisher Scientific) supplemented with 100U/ml of Penicillin-Streptomycin (Gibco™, ThermoFisher Scientific) and 10% FBS (TakaraBio). Cells were cultured in a 37° C. tissue culture CO2 incubator.
For studies with compounds using a co-culture system of MWCL-1 and BMSCs, BMSCs were cultured in a 96-, 48- or 24-well plates and cultured until the 90% confluence was reached. […] After 1 hour, the MWCL-Icells were added to the BMSC to create a co-culture system. The cells were co-incubated for 72 hours. After incubation time, cell viability, apoptosis, and IgM release were measured.
For studying the effect of compounds on inducing apoptosis of Waldenström Macroglobulinemia cells (MWCL-1). Cells were washed with PBS, resuspended in Annexin V binding buffer (Biolegend), and stained with Alexa Fluor 647 annexin V (Biolegend), Propidium Iodide (BD Pharmigen), and CD45 antibody (Biolegend) for 15 minutes at RT and analyzed by flow cytometry. Data were collected on an CytoFLEX S Flow Cytometer (Beckman Coulter) and analysed with FCS Express Software (De Novo Software). Annexin V positive cells were considered apoptotic.

[6] = tested on: WM patients; details: cited from earlier work
[7] = tested on: Ramos cell line; details: read-out: IC50, inhibition of cell proliferation, Chu et al. 2018; cited from earlier work
[8] = tested on: 340 wild-type protein kinases; assay: PanQinase wild-type kinase panel, selectivity score; type: biochemical; details: 1 μM; share of kinases with residual activity <50%; 340 wild-type protein kinase assays
Protocol: Screening procedures were performed in accordance with the company's on-line protocol [accessed on-line Mar.
The selectivity score for a particular compound at a particular concentration was calculated by using the following formula: Selectivity Score=(count of data points <50%)/(total number of data points).

Cc1cccnc1[C@@H]1CCC[C@H](c2cn3c(N4CCN(C)CC4)cccc3n2)N1C [Compound I-19]
Emax ([1]; Table 6B): 16% | IC50 ([1]; Table 6B, read-out: GBM-T-98G Cell Proliferation IC50): > 30 µM | Emax ([2]; Table 6B): 19% | IC50 ([2]; Table 6B, read-out: GBM-U87MG Cell Proliferation IC50): 6.47 µM | Emax [3]: 6% | IC50 [3]: 1670 nM

C=CC(=O)N1CCC[C@@H](n2nc(-c3ccc(Oc4ccccc4)cc3)c3c(N)ncnc32)C1 [Ibrutinib, ibrutinib, reference compound]
inhibition at 1 µM [4]: < 50% | IC50 ([1]; 96 h, read-out: T98G IC50 (uM)): > 30 µM | Emax [1]: 73% | IC50 ([1]; read-out: GBM-T-98G Cell Proliferation IC50 uM): 24.4 µM | IC50 [5]: 4.2 µM | VGPR ([6]; WM patients with MYD88 L265P CXCR4 WT): 44.4% | VGPR ([6]; WM patients with double mutations MYD88 L265P CXCR4 WHIM): 9.5% | IC50 ([2]; 96 h, read-out: U-87 MG IC50 (uM)): > 30 µM | Emax [2]: 52% | IC50 ([2]; read-out: GBM-U87MG Cell Proliferation IC50 uM): 28.5 µM | Emax [3]: 57% | IC50 [3]: 310 nM | IC50 [7]: 870 nM

Cc1cc(-c2ccnc(Nc3cnn(C)c3)n2)ccc1CNC(=O)N1CC(OC(C)C)C1 [BIIB-068, reference compound]
Selectivity Score [8]: 0.009
